According to EP4818157A1, “N-SUBSTITUTED CYCLIC AMIDE COMPOUND” (Kissei Pharmaceutical Co., Ltd., priority 2023, dated 2025):

Target: T1, human TSHR (Homo sapiens, UniProt P16473)
T1 construct: expressed in transfected cells
Experiment: Measurement of antagonist activity using TSH-induced cAMP production in human TSHR-stably expressing CHO cells
Format: cell-based
Conditions: human TSH final concentration 50 ng/mL
Protocol: Measurement of Antagonist Activity Using TSH-induced cAMP Production in Human TSHR-stably Expressing CHO Cells as an Indicator
A gene sequence of human TSHR (reference number NM_000369.2) was inserted into a multiple cloning site of pcDNA3.1(+). The prepared plasmid vector was introduced into CHO cells by a lipofection method to establish human TSHR stably expressing CHO cells. The obtained cells were seeded in a poly-D-lysine-coated 96-well plate at 5 x 10^4 cells/well, and cultured for 1 day in F12 medium containing 10% FBS, 400 µg/mL G418, 50 U/mL penicillin, and 50 µg/mL streptomycin under conditions of 37°C and 5% CO2. After removing a medium, the cells were washed twice with 100 µL per well of an assay buffer (Hanks' Balanced Salt Solution containing 20 mM HEPES and 1 mM IBMX). 30 µL of an assay buffer containing a test compound was added to a well, and the mixture was incubated at room temperature for 15 minutes. Next, 30 µL of an assay buffer containing human TSH (R&D Systems, Inc., final concentration 50 ng/mL) was added, and the mixture was incubated at 37°C for 1 hour. The supernatant was removed, and Lysis and Detection Buffer 2 (Cisbio) was added to prepare a cell lysate by incubating at room temperature for 1 hour. According to the instructions for use of a cAMP Gs HiRange kit (Cisbio), a cell lysate was reacted with d2-labeled cAMP and an anti-cAMP Europium Cryptate labeled antibody (Cisbio) in a 384-well white microplate. Next, a fluorescence intensity ratio (measurement wavelengths 665 nm/620 nm) was measured using a multiplate reader (PHERAstar FSX, BMG LABTECH Japan). A fluorescence intensity ratio of each sample was converted into a cAMP content using a standard curve. A cAMP content was converted into a percentage of a control value, and a cAMP production rate was calculated. Using Prism (Graph Pad Software Inc.), a cAMP production rate was plotted against a test compound concentration, and an IC50 value was calculated. The IC50 of each test compound is shown in the above tables. In the tables, IC50 < 3.0 µM was denoted as A, and 3.0 µM ≤ IC50 < 30 µM was denoted as B. The case where activity was observed but an IC50 value could not be calculated was denoted as C.

T1 sequence (P16473 21-764): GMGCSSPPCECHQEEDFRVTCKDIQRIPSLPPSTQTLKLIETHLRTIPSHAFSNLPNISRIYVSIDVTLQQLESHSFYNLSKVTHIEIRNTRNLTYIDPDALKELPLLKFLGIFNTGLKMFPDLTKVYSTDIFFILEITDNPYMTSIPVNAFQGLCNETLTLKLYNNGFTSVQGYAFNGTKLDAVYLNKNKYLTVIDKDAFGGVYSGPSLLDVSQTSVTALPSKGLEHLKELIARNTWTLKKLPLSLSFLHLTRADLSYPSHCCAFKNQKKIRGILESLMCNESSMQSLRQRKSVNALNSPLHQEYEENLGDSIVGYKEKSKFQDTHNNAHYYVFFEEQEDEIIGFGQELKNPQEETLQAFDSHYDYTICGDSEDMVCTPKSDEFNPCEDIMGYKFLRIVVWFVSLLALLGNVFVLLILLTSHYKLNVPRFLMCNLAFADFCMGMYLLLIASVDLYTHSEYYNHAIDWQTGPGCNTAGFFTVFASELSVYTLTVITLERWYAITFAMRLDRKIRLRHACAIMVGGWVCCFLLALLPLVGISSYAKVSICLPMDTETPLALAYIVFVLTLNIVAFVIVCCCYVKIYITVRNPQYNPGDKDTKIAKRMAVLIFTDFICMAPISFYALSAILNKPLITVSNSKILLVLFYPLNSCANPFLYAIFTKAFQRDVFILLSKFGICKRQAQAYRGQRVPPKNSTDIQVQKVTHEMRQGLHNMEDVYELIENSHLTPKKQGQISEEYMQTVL

Row | SMILES | IC50 [µM]
1 | C[C@@H]1CC[C@@H](NC(N)=O)C(=O)N1Cc1cc(C(F)F)ccc1F (relative stereo) [Example A-2, 1-((3R^*,6R^*)-1-(5-(difluoromethyl)-2-fluorobenzyl)-6-methyl-2-oxopiperidin-3-yl)urea] | < 3
2 | NC(=O)NC1CCC2(CC2)N(Cc2cccc(C(F)(F)F)c2)C1=O (stereo not shown) [Example A-20, 1-(5-oxo-4-(3-(trifluoromethyl)benzyl)-4-azaspiro[2.5]octan-6-yl)urea] | 3 to 30
3 | CC(c1cc(C(F)(F)F)ccc1F)N1C(=O)[C@H](NC(N)=O)CC[C@H]1C(F)(F)F (stereo partly drawn) [Example A-22, 1-((3R,6S)-1-(1-(2-fluoro-5-(trifluoromethyl)phenyl)ethyl)-2-oxo-6-(trifluoromethyl)piperidin-3-yl)urea] | > 30
4 | C[C@@H]1CC[C@@H](NC(N)=O)C(=O)N1Cc1cc(Cc2ccccc2)ccc1F (relative stereo) [Example A-5, 1-((3R^*,6R^*)-1-(5-benzyl-2-fluorobenzyl)-6-methyl-2-oxopiperidin-3-yl)urea] | < 3
5 | C[C@@H]1CC[C@@H](NC(N)=O)C(=O)N1Cc1cccc(Oc2ccccc2)c1 (relative stereo) [Example A-6, 1-((3R^*,6R^*)-6-methyl-2-oxo-1-(3-phenoxybenzyl)piperidin-3-yl)urea] | 3 to 30
6 | C[C@@H]1CC[C@@H](NC(N)=O)C(=O)N1Cc1cc(-c2ccccc2)ccc1F (relative stereo) [Example A-4, 1-((3R^*,6R^*)-1-((4-fluoro-[1,1'-biphenyl]-3-yl)methyl)-6-methyl-2-oxopiperidin-3-yl)urea] | 3 to 30
7 | NC(=O)N[C@@H]1C[C@@H]2CCCC[C@H]2N(Cc2cccc(C(F)(F)F)c2)C1=O (relative stereo) [Example A-29, 1-((3R^*,4aS^*,8aR^*)-(2-oxo-1-(3-(trifluoromethyl)benzyl)decahydroquinolin-3-yl)urea] | > 30
8 | C[C@@H]1CC[C@@H](NC(N)=O)C(=O)N1Cc1cc(C#Cc2ccccc2)ccc1F (relative stereo) [Example A-7, 1-((3R^*,6R^*)-1-(2-fluoro-5-(phenylethynyl)benzyl)-6-methyl-2-oxopiperidin-3-yl)urea] | < 3
9 | C[C@@H]1CC[C@@H](NC(N)=O)C(=O)N1Cc1cc(C#Cc2ccncc2)ccc1F (relative stereo) [Example A-8, 1-((3R^*,6R^*)-1-(2-fluoro-5-(pyridin-4-ylethynyl)benzyl)-6-methyl-2-oxopiperidin-3-yl)urea] | < 3
10 | C[C@@H]1CC[C@@H](NC(N)=O)C(=O)N1Cc1cc(C#Cc2cccnc2)ccc1F (relative stereo) [Example A-9, 1-((3R^*,6R^*)-1-(2-fluoro-5-(pyridin-3-ylethynyl)benzyl)-6-methyl-2-oxopiperidin-3-yl)urea] | < 3
11 | NC(=O)N[C@@H]1CC[C@@H](C(F)(F)F)N(Cc2cc(OC(F)(F)C(F)F)ccc2F)C1=O [Example A-16, 1-((3R,6S)-1-(2-fluoro-5-(1,1,2,2-tetrafluoroethoxy)benzyl)-2-oxo-6-(trifluoromethyl)piperidin-3-yl)urea] | < 3
12 | CNC(=O)N[C@@H]1CC[C@@H](C(F)(F)F)N(Cc2cc(C(F)(F)F)ccc2F)C1=O [Example A-24, 1-((3R,6S)-1-(2-fluoro-5-(trifluoromethyl)benzyl)-2-oxo-6-(trifluoromethyl)piperidin-3-yl)-3-methylurea] | < 3

More lines, now with the values ahead:

Row | IC50 [µM] | SMILES
13 | < 3 | Cc1ccc2c(c1)N(Cc1cc(C(F)F)ccc1F)C(=O)[C@H](NC(N)=O)C2 [Example C-13, (R)-1-(1-(5-(difluoromethyl)-2-fluorobenzyl)-7-methyl-2-oxo-1,2,3,4-tetrahydroquinolin-3-yl)urea]
14 | < 3 | NC(=O)N[C@@H]1Cc2ccc(C(F)F)cc2N(Cc2cccc(C(F)(F)F)n2)C1=O [Example F-2, (R)-1-(7-(difluoromethyl)-2-oxo-1-((6-(trifluoromethyl)pyridin-2-yl)methyl)-1,2,3,4-tetrahydroquinolin-3-yl)urea]
15 | < 3 | NC(=O)N[C@@H]1CC[C@@H](C(F)(F)F)N(Cc2cc(CCC3CC3)ccc2F)C1=O [Example D-2, 1-((3R,6S)-1-(5-(2-cyclopropylethyl)-2-fluorobenzyl)-2-oxo-6-(trifluoromethyl)piperidin-3-yl)urea]
16 | < 3 | NC(=O)N[C@@H]1Cc2ccccc2N(Cc2cccc3c2OC(F)(F)O3)C1=O [Example C-5, (R)-1-(1-((2,2-difluorobenzo[d][1,3]dioxol-4-yl)methyl)-2-oxo-1,2,3,4-tetrahydroquinolin-3-yl)urea]
17 | < 3 | Cc1ncc(NC(N)=O)c(=O)n1Cc1cc(C(F)(F)F)cc(Cl)c1F [Example B-8, 1-(1-(3-chloro-2-fluoro-5-(trifluoromethyl)benzyl)-2-methyl-6-oxo-1,6-dihydropyrimidin-5-yl)urea]
18 | 3 to 30 | NC(=O)N[C@@H]1Cc2ccc(C(F)F)cc2N(Cc2cc(C(F)(F)F)ccc2CO)C1=O [Example F-1, (R)-1-(7-(difluoromethyl)-1-(2-(hydroxymethyl)-5-(trifluoromethyl)benzyl)-2-oxo-1,2,3,4-tetrahydroquinolin-3-yl)urea]
19 | < 3 | NC(=O)Nc1cc(Br)cn(Cc2cc(C(F)(F)F)ccc2F)c1=O [Example B-1, 1-(5-bromo-1-(2-fluoro-5-(trifluoromethyl)benzyl)-2-oxo-1,2-dihydropyridin-3-yl)urea]
20 | < 3 | NC(=O)N[C@@H]1Cc2ccc(F)cc2N(Cc2cc(C(F)(F)F)cc(Cl)c2F)C1=O [Example C-21, (R)-1-(1-(3-chloro-2-fluoro-5-(trifluoromethyl)benzyl)-7-fluoro-2-oxo-1,2,3,4-tetrahydroquinolin-3-yl)urea]
21 | > 30 | COc1cccc(CN2C(=O)[C@H](NC(N)=O)Cc3ccccc32)c1 [Example C-3, (R)-1-(1-(3-methoxybenzyl)-2-oxo-1,2,3,4-tetrahydroquinolin-3-yl)urea]
22 | 3 to 30 | Cc1nc2c(s1)N(Cc1cc(C(F)(F)F)ccc1F)C(=O)[C@H](NC(N)=O)C2 [Example F-6, (R)-1-(4-(2-fluoro-5-(trifluoromethyl)benzyl)-2-methyl-5-oxo-4,5,6,7-tetrahydrothiazolo[5,4-b]pyridin-6-yl)urea]
23 | < 3 | COc1ccc2c(c1)N(Cc1cccc(C(F)(F)F)c1)C(=O)[C@H](NC(N)=O)C2 [Example C-7, (R)-1-(7-methoxy-2-oxo-1-(3-(trifluoromethyl)benzyl)-1,2,3,4-tetrahydroquinolin-3-yl)urea]
24 | < 3 | CC(C)(C)NC(=O)Nc1ccc2c(c1)nc(NC(N)=O)c(=O)n2Cc1cc(C(F)(F)F)ccc1F [Example F-9, 1-(tert-butyl)-3-(1-(2-fluoro-5-(trifluoromethyl)benzyl)-2-oxo-3-ureido-1,2-dihydroquinoxalin-6-yl)urea]
25 | 3 to 30 | NC(=O)Nc1ccc2n(c1=O)CC(c1cccc(C(F)(F)F)c1)C2 (stereo not shown) [Example E-7, 1-(5-oxo-2-(3-(trifluoromethyl)phenyl)-1,2,3,5-tetrahydroindolizin-6-yl)urea]
26 | < 3 | NC(=O)Nc1ccc(CO)n(Cc2cc(C(F)(F)F)cc(Cl)c2F)c1=O [Example E-1, 1-(1-(3-chloro-2-fluoro-5-(trifluoromethyl)benzyl)-6-(hydroxymethyl)-2-oxo-1,2-dihydropyridin-3-yl)urea]
27 | < 3 | NC(=O)Nc1ccc(CN2CCCC2)n(Cc2cc(C(F)(F)F)cc(Cl)c2F)c1=O [Example E-4, 1-(1-(3-chloro-2-fluoro-5-(trifluoromethyl)benzyl)-2-oxo-6-(pyrrolidin-1-ylmethyl)-1,2-dihydropyridin-3-yl)urea]
28 | < 3 | NC(=O)N[C@@H]1Cc2ccc(C(F)F)cc2N(Cc2cc(C(F)F)ccc2F)C1=O [Example C-14, (R)-1-(7-(difluoromethyl)-1-(5-(difluoromethyl)-2-fluorobenzyl)-2-oxo-1,2,3,4-tetrahydroquinolin-3-yl)urea]
29 | > 30 | CC(=O)NC[C@@H]1CC[C@@H](NC(N)=O)C(=O)N1Cc1cc(C(F)(F)F)ccc1F [Example D-8, N-(((2S,5R)-1-(2-fluoro-5-(trifluoromethyl)benzyl)-6-oxo-5-ureidopiperidin-2-yl)methyl)acetamide]
30 | 3 to 30 | Cc1cnc(NC(N)=O)c(=O)n1Cc1cc(C(F)(F)F)cc(Cl)c1F [Example B-9, 1-(4-(3-chloro-2-fluoro-5-(trifluoromethyl)benzyl)-5-methyl-3-oxo-3,4-dihydropyrazin-2-yl)urea]
31 | > 30 | CN(C)C(=O)C[C@@H]1CC[C@@H](NC(N)=O)C(=O)N1Cc1cc(C(F)(F)F)ccc1F (relative stereo) [Example D-10, 2-((2S^*,5R^*)-1-(2-fluoro-5-(trifluoromethyl)benzyl)-6-oxo-5-ureidopiperidin-2-yl)-N,N-dimethylacetamide]
